The supplement of paper PMC10307832

Tests used:
Assay in all cases: relative viability (nuclei count vs DMSO), 5 days (fraction); higher = more cells survive
[1] = compound: C1CC(C2=C(C1)C3=C(N2)C=CC(=C3)Cl)C(=O)N [Selisistat] + C[C@@H](Oc1cc(-c2cnn(C3CCNCC3)c2)cnc1N)c1c(Cl)ccc(F)c1Cl [Crizotinib] (partner 1 µM)
Method in brief: (§1)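 Lung cancer cell lines in 1536-well plates got either a single drug or a fixed anchor-drug dose together with five library-drug doses (not always all listed) in √10 steps, by pin tool, on the day after seeding. Nuclei were counted after 5 days, and relative viability is the treated-to-vehicle ratio of nuclei counts. Values are medians of duplicate plates.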

[2] = compound: C1CC(C2=C(C1)C3=C(N2)C=CC(=C3)Cl)C(=O)N [Selisistat] + Nc1ncn([C@H]2C[C@H](O)[C@@H](CO)O2)c(=O)n1 [Decitabine] (partner 2 µM)
Method in brief: as §1

[3] = compound: c1ccc2c(CCNc3ccc(Nc4ccncc4)cc3)c[nH]c2c1 [Serdemetan] + Cc1cc(Nc2cc(N3CCN(C)CC3)nc(Sc3ccc(NC(=O)C4CC4)cc3)n2)n[nH]1 [Tozasertib] (partner 0.1 µM)
Method in brief: as §1

[4] = compound: c1ccc2c(CCNc3ccc(Nc4ccncc4)cc3)c[nH]c2c1 [Serdemetan] + O=C(CCCCCCC(=O)Nc1ccccc1)NO [Vorinostat] (partner 1 µM)
Method in brief: as §1

Cell Line	relative viability ([1]; first compound 0.4 µM)	relative viability ([1]; first compound 1.265 µM)	relative viability ([1]; first compound 4 µM)	relative viability ([1]; first compound 12.65 µM)	relative viability ([1]; first compound 40 µM)	relative viability ([2]; first compound 0.4 µM)	relative viability ([2]; first compound 1.265 µM)	relative viability ([2]; first compound 4 µM)	relative viability ([2]; first compound 12.65 µM)	relative viability ([2]; first compound 40 µM)	relative viability ([3]; first compound 0.04 µM)	relative viability ([3]; first compound 0.1265 µM)	relative viability ([3]; first compound 0.4 µM)	relative viability ([3]; first compound 1.265 µM)	relative viability ([3]; first compound 4 µM)	relative viability ([4]; first compound 0.04 µM)	relative viability ([4]; first compound 0.1265 µM)	relative viability ([4]; first compound 0.4 µM)	relative viability ([4]; first compound 1.265 µM)	relative viability ([4]; first compound 4 µM)
SK-MES-1	1.12	0.993	1.05	0.875	0.959	0.397	0.446	0.312	0.325	0.331	0.871	0.859	0.851	0.747	0.865	0.962	1.08	0.889	0.962	0.71
NCI-H2170	1.2	1.16	1.22	1.15	1.26	0.481	0.474	0.458	0.53	0.47	0.662	0.732	0.7	0.276	0.685	0.828	0.834	0.806	0.733	0.876
NCI-H2085	0.893	0.702	0.886	0.864	0.951	0.595	0.551	0.577	0.625	0.588	0.813	0.797	0.77	0.708	0.574	0.761	0.776	0.695	0.484	0.524
SW 1573	0.841	0.791	0.8	0.922	0.751	0.604	0.453	0.347	0.502	0.459	0.168	0.15	0.218	0.248	0.18	0.662	0.932	0.974	0.615	0.208
NCI-H727	0.823	0.816			0.729	0.851	0.891	0.446	0.898	0.818	0.695	0.542	0.509	0.585	0.518	1.3	1.12	1.12	1.28	0.849
NCI-H441	0.754	0.652	0.915	0.673	0.806	0.268	0.234	0.234	0.25	0.293	0.719	0.669	0.687	0.709	0.605	0.795	0.71	0.765	0.479	0.436
LOU-NH91	0.766	0.664	0.683	0.729	0.738	0.815	0.795	0.784	0.787	0.788	0.692	0.654	0.442	0.509	0.684	0.954	0.954			0.935
NCI-H3122	0.315	0.235	0.218	0.296	0.266	0.387	0.502		0.499	0.4	0.369	0.431	0.382	0.406	0.337	1.05	0.969	0.928	0.587	0.877
NCI-H460	1.02	0.658		0.881	0.987	0.474	0.499	0.571	0.467	0.513	0.647	0.403	0.399	0.402	0.12	0.595	0.435	0.296	0.0775	0.0723
NCI-H650	0.707		0.786	0.596	0.664	0.407	0.293	0.286	0.324	0.33	0.661	0.679	0.803	0.642	0.581	0.352	0.478	0.51	0.405	0.46
NCI-H661	0.967	0.952	1.17	1.04	0.996	0.592	0.521	0.428	0.46	0.442	0.362	0.381	0.385	0.308	0.352	0.77	0.793	0.738	0.712	0.752
NCI-H1734	0.696	0.606	0.714	0.761	0.648	0.562	0.436	0.45	0.556	0.455	0.29	0.235	0.209	0.142	0.134	0.65	0.366	0.331	0.149	0.128
LXF-289	0.853	0.803	0.786	0.709	0.805	0.425	0.379	0.337	0.355	0.431	0.213	0.21	0.171	0.164	0.118	0.754	0.77	0.718	0.656	0.646
H3255	0.899	0.769	0.926	0.899	0.734	0.624	0.628	0.562	0.578	0.61	0.678	0.693	0.629	0.626	0.556	0.701	0.797		0.487	0.73
201T	1.04	1.03	0.986	1.02	1.01	0.915	0.816	0.845	0.877	0.913	0.983	0.939	0.925	0.787	0.497	0.974	0.996	0.883	0.879	0.715
NCI-H2126	1.1	0.976	0.992	1.01	1.12	0.618	0.574	0.579	0.599	0.606	0.867	0.874	0.786	0.832	0.79	0.806	0.913	0.628	0.669	0.659
HOP-62	0.682	0.957	1.09	0.801	0.988	0.22	0.211	0.215	0.227	0.192	0.421	0.323	0.322	0.328	0.245	0.702	0.713	0.881	0.36	0.406
